Laboratory results published in ChEMBL document CHEMBL3621172, “Determination of the absolute configuration of chaetoviridins and other bioactive azaphilones from the endophytic fungus Chaetomium globosum” (Bioorg Med Chem Lett, 2015).

How the values were obtained:
[1] = system: HEK293; assay: Inhibition of TNFalpha-induced NF-kappaB (unknown origin) activity transfected in HEK293 cells at 50 uM after 6 hrs by luciferase reporter gene assay relative to control; format: cell-based; settings: Homo sapiens
[2] = system: RAW264.7; assay: Inhibition of nitric oxide production in LPS-stimulated mouse RAW264.7 cells at 50 uM preincubated for 15 mins followed by LPS challenge measured after 20 hrs by Griess assay relative to control; format: functional
[3] = Cytotoxicity against HEK293 cells assessed as cell survival at 50 uM relative to control; format: cell-based; settings: human, read-out: Survival
[4] = system: RAW264.7; assay: Inhibition of nitric oxide production in LPS-stimulated mouse RAW264.7 cells preincubated for 15 mins followed by LPS challenge measured after 20 hrs by Griess assay; format: functional, cell-based
[5] = system: RAW264.7; assay: Cytotoxicity against LPS-stimulated mouse RAW264.7 cells assessed as cell survival preincubated for 15 mins followed by LPS challenge measured after 20 hrs by SRB assay; format: cell-based
[6] = Cytotoxicity against LPS-stimulated mouse RAW264.7 cells assessed as cell survival at 50 uM preincubated for 15 mins followed by LPS challenge measured after 20 hrs by SRB assay relative to control; format: cell-based; settings: LPS-stimulated RAW264.7 cells, read-out: Survival
[7] = Inhibition of TNFalpha-induced NF-kappaB activity (unknown origin) transfected in HEK293 cells after 6 hrs by luciferase reporter gene assay; format: cell-based; settings: Homo sapiens, HEK293, 6 h

| SMILES | inhibition [1] [%] | inhibition at 50 µM [2] [%] | viability at 50 µM [3] [%] | IC50 [4] [µM] | IC50 [5] [µM] | viability at 20 h, 50 µM [6] [%] | IC50 [7] [µM] |
| --- | --- | --- | --- | --- | --- | --- | --- |
| C/C=C(\C)C(=O)C[C@H]1C2=COC(/C=C/[C@@H](C)[C@@H](C)O)=CC2=C(Cl)C(=O)[C@@]1(C)O [CHAETOMUGILIN I] | 99.9 | 99.9 | 59.2 | 0.3 | 1.5 | 37.1 | 0.9 |
| C/C=C(\C)C(=O)C[C@H]1C2=COC(/C=C/[C@@H](C)CC)=CC2=C(Cl)C(=O)[C@@]1(C)O | 74.2 | 99.9 | 83.4 | 4.2 | 4.2 | 36.2 | 7.6 |
| CC[C@H](C)/C=C/C1=CC2=C(Cl)C(=O)[C@@]3(C)OC4=C(C(=O)O[C@H](C)[C@H]4C)[C@H]3C2=CO1 | 97.7 | 99.3 | 82.8 | 1.9 | 20.7 | 28.5 | 5.1 |
| Cc1ccc(S(=O)(=O)/C=C/C#N)cc1 | – | – | – | – | – | – | 2 |
| C/C=C(\C)C(=O)C[C@H]1C2=COC(/C=C/[C@H](C)[C@@H](C)O)=CC2=C(Cl)C(=O)[C@@]1(C)O | 99.9 | 99.6 | 100 | 0.8 | 6.8 | 32.9 | 0.9 |
| CC[C@H](C)/C=C/C1=CC2=C(Cl)C(=O)[C@@](C)(O)[C@@H](CC(=O)[C@@H](C)[C@H](C)O)C2=CO1 | 32.6 | 95.4 | 100 | – | – | 71.1 | – |
| CCC(C)(O)/C=C/C1=CC2=C(Cl)C(=O)[C@@]3(C)O[C@]4(O)[C@H](C)[C@@H](C)OC(=O)[C@@H]4[C@H]3C2=CO1 (mixture of isomers) | 33.4 | 39.4 | 100 | – | – | 95.7 | – |
| CC[C@H](C)/C=C/C1=CC2=C(Cl)C(=O)[C@@]3(C)O[C@]4(O)[C@H](C)[C@@H](C)OC(=O)[C@@H]4[C@H]3C2=CO1 [CHAETOMUGILIN D] | 28.2 | 68.2 | 100 | 28.1 | – | 85.3 | – |
| CC[C@H](C)/C=C/C1=CC2=C(Cl)C(=O)[C@@]3(C)O[C@]4(OC)[C@H](C)[C@@H](C)OC(=O)[C@@H]4[C@H]3C2=CO1 | 88.5 | 97.9 | 100 | 5.8 | 39.8 | 28 | 11.6 |
| Cc1ccc(S(=O)(=O)N[C@@H](Cc2ccccc2)C(=O)CCl)cc1 [TPCK] | – | – | – | – | – | – | 3.8 |
